Blank lines part the entries; values can stand above or below the compound they belong to.
How the values were obtained:
[1] = instrument: DT, single field, calibrated with Agilent tune mix (Agilent)
[2] = instrument: DT, stepped-field

SMILES: CCCCCCCCCCCCCCCCC(=O)N[C@@H](CO)[C@H](O)CCCCCCCCCCCCCCC [Cer(35:0)]
- collision cross section (N2) ([1]; [M+H]+): 258.6 Å²

SMILES: CCCCCCCCCCCCC=CC[C@@H](O)[C@H](CO)NC(=O)CCCCCCCCCCCCCCCC [Cer(35:1)]
- collision cross section (N2) ([1]; [M+H]+): 256.3 Å²

SMILES: CCCCCCCCCCCCC=CC[C@@H](O)[C@H](CO)NC(=O)CC=CCCCCCCCCCCCCCC [Cer(36:2)]
- collision cross section (N2) ([1]; [M+H]+): 255.4 Å²

SMILES: CCCCCCCCCCCCC=CC[C@@H](O)[C@H](CO)NC(=O)CCCCCCCCCCCCCCCCCCC [Cer(38:1)]
- collision cross section (N2) ([1]; [M+HCOO]-): 263.4 Å²
- collision cross section (N2) ([1]; [M+H]+): 267.3 Å²
- collision cross section (N2) ([1]; [M+Na]+): 273.1 Å²

SMILES: CCCCCCCCCCCCC=CC[C@@H](O)[C@H](CO)NC(=O)CCCCCCCCCCCCCCCCCCCC [Cer(39:1)]
- collision cross section (N2) ([1]; [M+H]+): 269 Å²

SMILES: CCCCCCCCCCCCC=CC[C@@H](O)[C@H](CO)NC(=O)CCCCCCCCCCCCCCCCCCCCC [Cer(40:1)]
- collision cross section (N2) ([1]; [M+HCOO]-): 269.4 Å²
- collision cross section (N2) ([1]; [M+H]+): 272.3 Å²

SMILES: CCCCCCCCCCCCC=CC[C@@H](O)[C@H](CO)NC(=O)CCCCCCCCCCCCCCCCCCCCCC [Cer(41:1)]
- collision cross section (N2) ([1]; [M+H]+): 275.6 Å²
- collision cross section (N2) ([1]; [M+Na]+): 281.6 Å²

SMILES: CCCCCCCCCCCCC=CC[C@@H](O)[C@H](CO)NC(=O)CCCCCCCCCCCCCCCCCCCCCCC [Cer(42:1)]
- collision cross section (N2) ([1]; [M+H]+): 279.3 Å²
- collision cross section (N2) ([1]; [M-H]-): 267.7 Å²

SMILES: CCCCCCCCCCCCC=CC[C@@H](O)[C@H](CO)NC(=O)CC=CCCCCCCCCCCCCCCCCCCCC [Cer(42:2)]
- collision cross section (N2) ([1]; [M+HCOO]-): 274.4 Å²
- collision cross section (N2) ([1]; [M+Na]+): 278.8 Å²
- collision cross section (N2) ([1]; [M-H]-): 266.1 Å²

SMILES: CCCCCCCCCCCCCCCCCC(=O)OC[C@H](COP(=O)(O)OC[C@H](N)C(=O)O)OC(=O)CCCCCCCCCCCCCCCCC [PS(36:00)]
- collision cross section (N2) ([2]; [M-H]-): 284.03 Å²

SMILES: CCCCCCCCCC/C=C\CCCCCCCCCC(=O)O[C@H](COC(=O)CCCCCCCCCCCCCC)COP(=O)(O)OC[C@H](N)C(=O)O [PS(37:01)]
- collision cross section (N2) ([2]; [M+2Na-H]+): 293.47 Å²

SMILES: CCCCC/C=C\C/C=C\CCCCCCCCCCCC(=O)O[C@H](COC(=O)CCCCCCCCCCCCCC)COP(=O)(O)OC[C@H](N)C(=O)O [PS(37:02)]
- collision cross section (N2) ([2]; [M+2Na-H]+): 289.29 Å²

SMILES: CCCCC/C=C\C/C=C\C/C=C\CCCCCCC(=O)O[C@H](COC(=O)CCCCCCC/C=C\CCCCCCC)COP(=O)(O)OC[C@H](N)C(=O)O [PS(37:04)]
- collision cross section (N2) ([2]; [M+2Na-H]+): 285.85 Å²

SMILES: CCCCC/C=C\C/C=C\C/C=C\CCCCCCC(=O)O[C@H](COC(=O)CCCCCCC/C=C\CCCCCCCC)COP(=O)(O)OC[C@H](N)C(=O)O [PS(38:04)]
- collision cross section (N2) ([2]; [M+2Na-H]+): 288.75 Å²
- collision cross section (N2) ([2]; [M+H]+): 284.44 Å²
- collision cross section (N2) ([2]; [M+K]+): 289.37 Å²
- collision cross section (N2) ([2]; [M-H]-): 285.11 Å²

SMILES: CCCCC/C=C\C/C=C\C/C=C\CCCCCCC(=O)O[C@H](COC(=O)CCCCCCC/C=C\C/C=C\CCCCC)COP(=O)(O)OC[C@H](N)C(=O)O [PS(38:05)]
- collision cross section (N2) ([2]; [M+2Na-H]+): 285.68 Å²
- collision cross section (N2) ([2]; [M+H]+): 281.67 Å²
- collision cross section (N2) ([2]; [M+K]+): 286.6 Å²
- collision cross section (N2) ([2]; [M-H]-): 283.69 Å²

Results, then the compound that gave them:

- collision cross section (N2) ([2]; [M+2Na-H]+): 296.18 Å²
SMILES: CC/C=C\C/C=C\C/C=C\C/C=C\C/C=C\C/C=C\CCC(=O)OC[C@H](COP(=O)(O)OC[C@H](N)C(=O)O)OC(=O)CCCCCCCCCCCCCCCCCC [PS(41:06)]

- collision cross section (N2) ([2]; [M+2Na-H]+): 297.48 Å²
SMILES: CCCCC/C=C\C/C=C\C/C=C\C/C=C\CCCCCC(=O)O[C@H](COC(=O)CCCCCCCCC/C=C\C/C=C\CCCCC)COP(=O)(O)OC[C@H](N)C(=O)O [PS(42:06)]

- collision cross section (N2) ([2]; [M+2Na-H]+): 295.25 Å²
- collision cross section (N2) ([2]; [M-H]-): 291.98 Å²
SMILES: CCCCC/C=C\C/C=C\C/C=C\C/C=C\CCCCCC(=O)O[C@H](COC(=O)CCC/C=C\C/C=C\C/C=C\C/C=C\CCCCC)COP(=O)(O)OC[C@H](N)C(=O)O [PS(42:08)]

- collision cross section (N2) ([2]; [M+2Na-H]+): 292.63 Å²
- collision cross section (N2) ([2]; [M+K]+): 294.57 Å²
- collision cross section (N2) ([2]; [M-H]-): 290.63 Å²
SMILES: CC/C=C\C/C=C\C/C=C\C/C=C\C/C=C\CCCC(=O)OC[C@H](COP(=O)(O)OC[C@H](N)C(=O)O)OC(=O)CCCCC/C=C\C/C=C\C/C=C\C/C=C\CCCCC [PS(42:09)]

- collision cross section (N2) ([2]; [M+Na]+): 280.61 Å²
SMILES: CCCCCCCCCCCCC=CC[C@@H](O)[C@H](COP(=O)([O-])OCC[N+](C)(C)C)NC(=O)CCCCCCCCCCCCCCCC [SM(35:01)]

- collision cross section (N2) ([2]; [M+H]+): 288.67 Å²
- collision cross section (N2) ([2]; [M+Na]+): 285.35 Å²
SMILES: CCCCCCCCCCCCC=CC[C@@H](O)[C@H](COP(=O)([O-])OCC[N+](C)(C)C)NC(=O)CCCCCCCCCCCCCCCCCC [SM(37:01)]

- collision cross section (N2) ([2]; [M+2Na-H]+): 294.68 Å²
SMILES: CCCCCCCCCCCCCCCCCCCC(=O)N[C@@H](COP(=O)([O-])OCC[N+](C)(C)C)[C@H](O)CCCCCCCCCCCCCCC [SM(38:00)]

- collision cross section (N2) ([2]; [M+Cl]-): 294.7 Å²
- collision cross section (N2) ([2]; [M+HCOO]-): 296.3 Å²
- collision cross section (N2) ([2]; [M+H]+): 292.26 Å²
- collision cross section (N2) ([2]; [M+Na]+): 292.18 Å²
SMILES: CCCCCCCCCCCCC=CC[C@@H](O)[C@H](COP(=O)([O-])OCC[N+](C)(C)C)NC(=O)CCCCCCCCCCCCCCCCCCC [SM(38:01)]

- collision cross section (N2) ([2]; [M+H]+): 295.85 Å²
- collision cross section (N2) ([2]; [M+Na]+): 294.58 Å²
SMILES: CCCCCCCCCCCCC=CC[C@@H](O)[C@H](COP(=O)([O-])OCC[N+](C)(C)C)NC(=O)CCCCCCCCCCCCCCCCCCCC [SM(39:01)]

- collision cross section (N2) ([2]; [M+H]+): 301.14 Å²
- collision cross section (N2) ([2]; [M+Na]+): 299.31 Å²
SMILES: CCCCCCCCCCCCC=CC[C@@H](O)[C@H](COP(=O)([O-])OCC[N+](C)(C)C)NC(=O)CCCCCCCCCCCCCCCCCCCCCC [SM(41:01)]

- collision cross section (N2) ([2]; [M+Cl]-): 305.77 Å²
- collision cross section (N2) ([2]; [M+HCOO]-): 306.96 Å²
- collision cross section (N2) ([2]; [M+H]+): 303.17 Å²
- collision cross section (N2) ([2]; [M+Na]+): 302.6 Å²
SMILES: CCCCCCCCCCCCC=CC[C@@H](O)[C@H](COP(=O)([O-])OCC[N+](C)(C)C)NC(=O)CCCCCCCCCCCCCCCCCCCCCCC [SM(42:01)]

- collision cross section (N2) ([2]; [M+Cl]-): 304.71 Å²
- collision cross section (N2) ([2]; [M+HCOO]-): 305.63 Å²
- collision cross section (N2) ([2]; [M+H]+): 301.43 Å²
- collision cross section (N2) ([2]; [M+Na-H2O]+): 301.19 Å²
- collision cross section (N2) ([2]; [M+Na]+): 300.53 Å²
SMILES: CCCCCCCCCCCCC=CC[C@@H](O)[C@H](COP(=O)([O-])OCC[N+](C)(C)C)NC(=O)CC=CCCCCCCCCCCCCCCCCCCCC [SM(42:02)]

- collision cross section (N2) ([2]; [M+H]+): 297.81 Å²
SMILES: CCCCCCCCCCCCC=CC[C@@H](O)[C@H](COP(=O)([O-])OCC[N+](C)(C)C)NC(=O)CC=CCC=CCC=CCCCCCCCCCCCCCC [SM(42:04)]

- collision cross section (N2) ([2]; [M+H]+): 309.76 Å²
- collision cross section (N2) ([2]; [M+Na]+): 307.86 Å²
SMILES: CCCCCCCCCCCCC=CC[C@@H](O)[C@H](COP(=O)([O-])OCC[N+](C)(C)C)NC(=O)CCCCCCCCCCCCCCCCCCCCCCCCC [SM(44:01)]

- collision cross section (N2) ([2]; [M+Na]+): 304.66 Å²
SMILES: CCCCCCCCCCCCC=CC[C@@H](O)[C@H](COP(=O)([O-])OCC[N+](C)(C)C)NC(=O)CC=CCC=CCCCCCCCCCCCCCCCCCCC [SM(44:03)]

Source: the C3SDB collision cross section collection
